Calls of active or inactive are those of the source. The rule behind the calls is not given here. Square brackets hold non-standard residues; d marks the D form. Peptide text beside a SMILES is read from it. NMeF = CN[C@@H](Cc1ccccc1)C(=O)O; NMeV = CN[C@H](C(=O)O)C(C)C
How the values were obtained:
[1] = tested on: Staphylococcus aureus; test: Antimicrobial activity against Staphylococcus aureus at 100 ug/ml by agar diffusion test; type: functional, organism-based
[2] = tested on: Staphylococcus aureus; test: Antimicrobial activity against methicillin-resistant Staphylococcus aureus at 100 ug/ml by agar diffusion test; type: functional, organism-based

SMILES | Activity [1] | Activity [2]
CC(C)[C@@H]1NC(=O)[C@H](C(C)C)N(C)C(=O)[C@H](C(C)C)NC(=O)[C@H](Cc2ccccc2)N(C)C(=O)[C@H](Cc2ccccc2)NC1=O (cyclo(F[NMeF]V[NMeV]V)) | inactive | inactive
CC(C)[C@@H]1NC(=O)[C@H](Cc2ccccc2)N(C)C(=O)[C@H](C(C)C)NC(=O)[C@H](C(C)C)N(C)C(=O)[C@H](Cc2ccccc2)NC1=O (cyclo(F[NMeV]V[NMeF]V)) | inactive | inactive

From ChEMBL document CHEMBL1926601, “Persipeptides A and B, two cyclic peptides from Streptomyces sp. UTMC 1154” (Bioorg Med Chem, 2012)
